Measurements from patent US20260374773A1, “MULTI-CYCLIC IRAK AND FLT3 INHIBITING COMPOUNDS AND USES THEREOF” (CHILDREN'S HOSPITAL MEDICAL CENTER, priority 2022, published 2026).

Biological target: T1, FLT3 R834Q (Homo sapiens, UniProt P36888, R834Q)
T1 sequence (P36888 27-993 R834Q): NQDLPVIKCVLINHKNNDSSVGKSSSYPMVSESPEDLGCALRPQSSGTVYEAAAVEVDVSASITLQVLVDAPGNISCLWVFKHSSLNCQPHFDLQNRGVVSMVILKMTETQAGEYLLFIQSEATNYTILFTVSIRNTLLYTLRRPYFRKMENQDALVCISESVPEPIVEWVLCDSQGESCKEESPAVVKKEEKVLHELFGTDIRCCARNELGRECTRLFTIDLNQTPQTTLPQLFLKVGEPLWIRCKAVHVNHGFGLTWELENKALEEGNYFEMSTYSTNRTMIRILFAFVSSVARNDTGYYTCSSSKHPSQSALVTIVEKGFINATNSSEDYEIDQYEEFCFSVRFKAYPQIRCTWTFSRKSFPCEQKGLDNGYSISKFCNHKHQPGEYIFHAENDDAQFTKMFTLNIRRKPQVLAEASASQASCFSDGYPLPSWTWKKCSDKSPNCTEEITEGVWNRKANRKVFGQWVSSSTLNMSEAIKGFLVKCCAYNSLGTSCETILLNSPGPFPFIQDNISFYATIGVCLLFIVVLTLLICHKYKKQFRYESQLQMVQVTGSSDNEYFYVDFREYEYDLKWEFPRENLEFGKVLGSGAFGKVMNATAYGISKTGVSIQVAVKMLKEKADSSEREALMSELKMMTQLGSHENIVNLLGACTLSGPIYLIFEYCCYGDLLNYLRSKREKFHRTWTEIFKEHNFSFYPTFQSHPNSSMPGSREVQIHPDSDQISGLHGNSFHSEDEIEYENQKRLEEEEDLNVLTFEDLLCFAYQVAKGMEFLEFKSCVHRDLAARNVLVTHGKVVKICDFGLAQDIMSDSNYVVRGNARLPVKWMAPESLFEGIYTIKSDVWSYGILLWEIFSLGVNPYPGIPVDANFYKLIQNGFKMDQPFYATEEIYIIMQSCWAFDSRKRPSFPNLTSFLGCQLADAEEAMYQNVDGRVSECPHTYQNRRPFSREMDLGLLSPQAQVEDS
Assay: DiscoverX KINOMEscan active site-directed competition binding, FLT3 R834Q
Conditions: Table 13; no ATP
Description: (§1) Kinase binding data were obtained for various exemplary compounds prepared according to Examples 1-8 using the DiscoverX KINOMEscan® active site-directed competition binding site-directed assay protocol described below. […] As a result, the data report thermodynamic interaction affinities (Kd values), rather than IC50 values that are dependent on ATP concentrations. The assay uses a DNA-tagged version of the protein kinase, and an immobilized ligand bound to a solid support. Compounds that directly or indirectly prevent kinase binding to the immobilized ligand reduce the amount of kinase captured on the solid support, which is detected using an ultra-sensitive qPCR method. Affinity constants reported from the assay have been reported to be independent of the immobilized ligand used that is coupled to the solid support (See supplemental information in Fabian, M. A. et. al., (2005) Nat. Biotechnol. 23, 329-336; Wodicka, L. M. et. al., (2010) Chem. Biol. 17, 1241-1249.)
Kinase-tagged T7 phage strains were prepared in an E. coli host derived from the BL21 strain. E. coli were grown to log-phase and infected with T7 phage and incubated with shaking at 32 °C until lysis. The lysates were centrifuged and filtered to remove cell debris. The remaining kinases were produced in HEK-293 cells and subsequently tagged with DNA for qPCR detection. Streptavidin-coated magnetic beads were treated with biotinylated small molecule ligands for 30 minutes at room temperature to generate affinity resins for kinase assays. The liganded beads were blocked with excess biotin and washed with blocking buffer (SeaBlock (Pierce), 1% BSA, 0.05% Tween 20, 1 mM DTT) to remove unbound ligand and to reduce non-specific binding. […] Test compounds were prepared as 111x stocks in 100% DMSO. Kds were determined using an 11-point 3-fold compound dilution series with three DMSO control points. All compounds for Kd measurements are distributed by acoustic transfer (non-contact dispensing) in 100% DMSO. The compounds were then diluted directly into the assays such that the final concentration of DMSO was 0.9%. All reactions were performed in polypropylene 384-well plates. Each was a final volume of 0.02 mL. The assay plates were incubated at room temperature with shaking for 1 hour and the affinity beads were washed with wash buffer (1×PBS, 0.05% Tween 20). The beads were then re-suspended in elution buffer (1×PBS, 0.05% Tween 20, 0.5 μM nonbiotinylated affinity ligand) and incubated at room temperature with shaking for 30 minutes. The kinase concentration in the eluates was measured by qPCR. Binding constants (Kds) were calculated with a standard dose-response curve using the Hill equation. The Hill Slope was set to −1. Curves were fitted using a non-linear least square fit with the Levenberg-Marquardt algorithm.
as §1, with “9-12” for “1-8”
Kinase-tagged T7 phage strains were prepared in an E. coli host derived from the BL21 strain. […]

Kd [pM] | Compound
< 170 | COc1cn2ncc(-c3nc(N[C@H]4CNCC[C@@H]4F)c(C#N)cc3F)c2nc1C1CC1 [Compound 7, 6-(5-cyclopropyl-6-methoxypyrazolo[1,5-a]pyrimidin-3-yl)-5-fluoro-2-(((3S,4S)-4-fluoropiperidin-3-yl)amino)nicotinonitrile]
3300 | COc1cn2ncc(-c3nc(N[C@H]4CNCC[C@@H]4F)c(F)cc3F)c2nc1C(C)(C)O [Compound 13, 2-(3-(3,5-difluoro-6-(((3S,4S)-4-fluoropiperidin-3-yl)amino)pyridin-2-yl)-6-methoxypyrazolo[1,5-a]pyrimidin-5-yl)propan-2-ol]
2200 | COc1cn2ncc(-c3nc(N[C@H]4CNCC[C@@H]4F)c(C#N)cc3F)c2nc1C(C)(C)O [Compound 10, 5-fluoro-2-(((3S,4S)-4-fluoropiperidin-3-yl)amino)-6-(5-(2-hydroxypropan-2-yl)-6-methoxypyrazolo[1,5-a]pyrimidin-3-yl)nicotinonitrile]

Same assay, conditions: Table 19; no ATP

Kd [pM] | Compound
350 | COc1cn2ncc(-c3cncc(N[C@H]4CNCC[C@@H]4F)n3)c2nc1C1CC1 [Compound 12a, 6-(5-cyclopropyl-6-methoxypyrazolo[1,5-a]pyrimidin-3-yl)-N-((3S,4S)-4-fluoropiperidin-3-yl)pyrazin-2-amine]
< 170 | COc1cn2ncc(-c3nc(N[C@H]4CNCC[C@@H]4F)ncc3F)c2nc1C1CC1 [Compound 15a, 4-(5-cyclopropyl-6-methoxypyrazolo[1,5-a]pyrimidin-3-yl)-5-fluoro-N-((3S,4S)-4-fluoropiperidin-3-yl)pyrimidin-2-amine]
< 170 | COc1cn2ncc(-c3nc(N[C@@H]4CCCNC4)ncc3F)c2nc1C1CC1 [Compound 14a, (R)-4-(5-cyclopropyl-6-methoxypyrazolo[1,5-a]pyrimidin-3-yl)-5-fluoro-N-(piperidin-3-yl)pyrimidin-2-amine]

The remaining lines, values behind:

Compound | Kd [pM]
COc1cn2ncc(-c3nc(N[C@H]4CNCC[C@@H]4F)ncc3F)c2nc1C(C)(C)O [Compound 6a, 2-(3-(5-fluoro-2-(((3S,4S)-4-fluoropiperidin-3-yl)amino)pyrimidin-4-yl)-6-methoxypyrazolo[1,5-a]pyrimidin-5-yl)propan-2-ol] | 3800
COc1cn2ncc(-c3ccnc(N[C@H]4CNCC[C@@H]4F)n3)c2nc1C1CC1 [Compound 7a, 4-(5-cyclopropyl-6-methoxypyrazolo[1,5-a]pyrimidin-3-yl)-N-((3S,4S)-4-fluoropiperidin-3-yl)pyrimidin-2-amine] | 430
